The record followed here is ChEMBL document CHEMBL1201862, “PubChem BioAssay data set” (2004).

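Each compound was tested at five concentrations against cells in 96-well plates for 48 hours. GI50 = concentration required for 50% inhibition of growth.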 Calls of active or inactive are those of the source. Rule as the data show it: active = GI50 up to about 1.1 µM and inactive = higher.

Some test systems named below: SNB-75; 786-0; HL-60; A549; MDA-MB-435; HOP-92; SNB-19; T47D; K562; SK-OV-3; OVCAR-3; Hs-578T; HCT-15; SK-MEL-28; SK-MEL-5; A498; RXF 393; RPMI-8226; LOX IMVI; NCI-H226.
Common to all, as to test: NCI-60 cell line screen, 48 h

For the compound `COc1cc(C2C3=C(NC(=O)C2C#N)c2ccc4ccccc4c2OCC3)cc(OC)c1OC` (stereo not drawn), the GI50 in the test with SNB-75 was 16.2 µM (inactive); in the test with 786-0 it was 31.5 µM (inactive); with HL-60, 27 µM (inactive); in the test with A549, 54.2 µM (inactive); with MDA-MB-435, 41.7 µM (inactive); in the test on HOP-92, 10.4 µM (inactive). Besides, the GI50 is 28.3 µM (inactive) in the test on SNB-19; 12.2 µM (inactive) in the test with T47D; 44.6 µM (inactive) with K562; 17.2 µM (inactive) in the test with SK-OV-3; 45 µM (inactive) with OVCAR-3; 20.9 µM (inactive) in the test on Hs-578T. Also, the GI50 is 41.8 µM in the test with HCT-15; 18.3 µM (inactive) with SK-MEL-28; 28.2 µM (inactive) in the test with SK-MEL-5; 12.4 µM (inactive) with A498; 14.4 µM (inactive) in the test with RXF 393; 7.83 µM (inactive) in the test on RPMI-8226.
For the compound `CC(C)(C)OC(=O)NCCCCC(N)NC(=O)c1ccccc1` (stereo not drawn), the GI50 in the test on SNB-75, in the test on 786-0, in the test with A549, in the test on MDA-MB-435, in the test with HOP-92 and in the test with SNB-19 was > 100 µM (inactive) in each case. Also, the GI50 in the test on LOX IMVI, in the test on T47D, in the test on K562, in the test on SK-OV-3, in the test with OVCAR-3 and in the test on Hs-578T was > 100 µM (inactive) in each case. The GI50 was more than 100 µM with HCT-15; > 100 µM (inactive) in the test with SK-MEL-28; > 100 µM (inactive) in the test with SK-MEL-5; > 100 µM (inactive) in the test on A498; > 100 µM (inactive) with NCI-H226; > 100 µM (inactive) in the test on RXF 393. Further, the GI50 in the test with RPMI-8226 is > 100 µM (inactive).
Turning to `O=CN1CCN(C(=O)c2ccc(Cl)c(Cl)c2)C1=S`, the GI50 is 17.5 µM (inactive) in the test with SNB-75; 4.53 µM (inactive) in the test with 786-0; 24.6 µM (inactive) in the test with HL-60; 17.7 µM (inactive) in the test on A549; 16.6 µM (inactive) with MDA-MB-435; 17.5 µM (inactive) in the test on SNB-19. In addition, the GI50 in the test on LOX IMVI is 9.29 µM (inactive); in the test with T47D, 15.3 µM (inactive); in the test on K562, 13.8 µM (inactive); in the test with SK-OV-3, 18.9 µM (inactive); in the test on OVCAR-3 it was 15 µM (inactive); in the test with Hs-578T, 39.5 µM (inactive). Further, the GI50 with HCT-15 is 19.3 µM; with SK-MEL-28, 18.2 µM (inactive); with A498 it was 15.8 µM (inactive); in the test on NCI-H226, 20.7 µM (inactive); in the test with RXF 393, 17.5 µM (inactive); in the test on RPMI-8226, 2.84 µM (inactive).
Turning to `O=C1c2cc3c(cc2NC(c2ccccc2F)C1O)OCO3` (stereo not drawn), the GI50 is 16.3 µM (inactive) in the test with SNB-75; 15.5 µM (inactive) with 786-0; 11.7 µM (inactive) with A549; 3.08 µM (inactive) with MDA-MB-435; 33.6 µM (inactive) with HOP-92; 21.3 µM (inactive) in the test on SNB-19. The GI50 is 17.9 µM (inactive) in the test with LOX IMVI; > 59.6 µM (inactive) in the test with T47D; 6.85 µM (inactive) in the test on K562; 17.7 µM (inactive) in the test with SK-OV-3; 20.5 µM (inactive) with OVCAR-3; 18.1 µM (inactive) in the test with Hs-578T. Also, the GI50 is 5.45 µM in the test on HCT-15; 18.5 µM (inactive) in the test on SK-MEL-28; 4.86 µM (inactive) with SK-MEL-5; 13.3 µM (inactive) with A498; 20.9 µM (inactive) in the test on NCI-H226; 22.4 µM (inactive) in the test with RXF 393. Also, in the test with RPMI-8226, the GI50 is 30.5 µM (inactive).
On to `O=C(/C=C/c1ccc(-c2ccccc2[N+](=O)[O-])o1)NCc1ccc(C(=O)NCCc2ccccc2)cc1`, for which the GI50 with SNB-75 is > 100 µM (inactive); in the test on 786-0, > 100 µM (inactive); in the test on A549, > 100 µM (inactive); in the test on MDA-MB-435, 3.92 µM (inactive); in the test with HOP-92 it was > 100 µM (inactive); with SNB-19, > 100 µM (inactive). Further, the GI50 with LOX IMVI, with T47D, in the test on K562, in the test on SK-OV-3, with OVCAR-3 and in the test with Hs-578T was > 100 µM (inactive) in each case. The GI50 in the test on HCT-15 is more than 100 µM; in the test with SK-MEL-28 it was > 100 µM (inactive); in the test on SK-MEL-5, > 100 µM (inactive); in the test on A498, 29.3 µM (inactive); with NCI-H226, > 100 µM (inactive); with RXF 393 it was > 100 µM (inactive). Besides, the GI50 with RPMI-8226 was > 100 µM (inactive).
Consider `CC(SC(=S)N(C)C)C(=O)Nc1nnc(-c2ccc(Cl)cc2)o1` (stereo not drawn), for which the GI50 in the test with SNB-75 was 41.5 µM (inactive); in the test on 786-0, 20.8 µM (inactive); in the test on A549, 33.3 µM (inactive); with MDA-MB-435, 35.2 µM (inactive); in the test on HOP-92, > 100 µM (inactive); in the test with SNB-19 it was 35.3 µM (inactive). In addition, the GI50 in the test with LOX IMVI is 16.9 µM (inactive); in the test with T47D, 44.8 µM (inactive); in the test with K562, 14.3 µM (inactive); in the test on SK-OV-3, > 100 µM (inactive); in the test with OVCAR-3, 19.6 µM (inactive); with Hs-578T, > 100 µM (inactive). The GI50 with HCT-15 is 17.7 µM; in the test on SK-MEL-28, 53 µM (inactive); in the test with SK-MEL-5, 31.6 µM (inactive); with A498 it was 42.4 µM (inactive); with NCI-H226 it was 40.6 µM (inactive); with RXF 393, 80.7 µM (inactive). The GI50 with RPMI-8226 was 22.6 µM (inactive).
Take `Cc1nn(-c2ccccc2)c(C)c1/C=N/NC(=O)c1sc(=S)n(-c2ccc(Cl)cc2)c1N`: the GI50 in the test with SNB-75 was 1.48 µM (inactive); in the test on 786-0 it was 3.89 µM (inactive); with HL-60, 8.17 µM (inactive); with A549, 6.28 µM (inactive); with MDA-MB-435, 9.64 µM (inactive); with SNB-19 it was > 100 µM (inactive). Moreover, the GI50 was 3.27 µM (inactive) with LOX IMVI; 16.5 µM (inactive) in the test with T47D; 3.52 µM (inactive) in the test on K562; 3.87 µM (inactive) in the test with SK-OV-3; 60.3 µM (inactive) in the test on OVCAR-3; 2.4 µM (inactive) in the test on Hs-578T. For the same compound, the GI50 was 6.56 µM in the test with HCT-15; 5.4 µM (inactive) with SK-MEL-28; 4.03 µM (inactive) in the test on SK-MEL-5; 6.18 µM (inactive) in the test on A498; 34.5 µM (inactive) with NCI-H226; 2.15 µM (inactive) in the test with RXF 393. In addition, in the test with RPMI-8226, the GI50 was 2.67 µM (inactive).
Take `NC(Cc1ccc(S(=O)(=O)O)cc1)C(=O)NC(Cc1ccc(S(=O)(=O)O)cc1)C(=O)NC(Cc1ccc(S(=O)(=O)O)cc1)C(=O)O` (stereo not drawn): the GI50 with SNB-75, with 786-0, with HL-60, with A549, in the test with MDA-MB-435 and in the test on LOX IMVI was > 100 µM (inactive) in each case. For the same compound, the GI50 in the test on T47D is > 100 µM (inactive); in the test with K562, > 100 µM (inactive); in the test on OVCAR-3, > 100 µM (inactive); in the test with Hs-578T, > 100 µM (inactive); in the test with HCT-15, more than 100 µM; with SK-MEL-28, > 100 µM (inactive). Further, the GI50 in the test on SK-MEL-5, in the test on A498, in the test with NCI-H226, with RXF 393 and in the test with RPMI-8226 was > 100 µM (inactive) throughout.
On to `CC1=C(C)C(=O)C(C2=CC(=O)C=CC2=O)=C(C2=CC(=O)C=CC2=O)C1=O`, for which the GI50 with SNB-75 is > 100 µM (inactive); in the test on 786-0 it was 76.7 µM (inactive); in the test with HL-60 it was 14.9 µM (inactive); with A549, 98.9 µM (inactive); in the test on MDA-MB-435, 27.9 µM (inactive); with HOP-92, 36.4 µM (inactive). Further, the GI50 in the test on SNB-19 was > 100 µM (inactive); with LOX IMVI, 26.7 µM (inactive); with T47D it was 26.4 µM (inactive); in the test with SK-OV-3 it was > 100 µM (inactive); in the test with Hs-578T, 45.4 µM (inactive); with HCT-15 it was 41 µM. Besides, the GI50 was > 74 µM (inactive) in the test on SK-MEL-28; 21.3 µM (inactive) in the test with SK-MEL-5; > 100 µM (inactive) with A498; > 100 µM (inactive) in the test on NCI-H226; 41.9 µM (inactive) in the test on RXF 393.
With `CCN(CC)CCNC(=O)c1ccc(I)cc1`, the GI50 was 33.8 µM (inactive) in the test on SNB-75; > 100 µM (inactive) in the test with 786-0; > 100 µM (inactive) with A549; > 100 µM (inactive) with MDA-MB-435; > 100 µM (inactive) in the test on HOP-92; > 100 µM (inactive) with SNB-19. For the same compound, the GI50 is > 100 µM (inactive) in the test on LOX IMVI; 64.4 µM (inactive) in the test on T47D; > 100 µM (inactive) with K562; > 100 µM (inactive) in the test on SK-OV-3; > 100 µM (inactive) with OVCAR-3; > 100 µM (inactive) with Hs-578T. Further, the GI50 in the test with HCT-15 was more than 100 µM; in the test on SK-MEL-28, > 100 µM (inactive); in the test on SK-MEL-5, 28.4 µM (inactive); in the test on A498, 44.3 µM (inactive); in the test on NCI-H226, > 100 µM (inactive); in the test on RXF 393, > 100 µM (inactive). The GI50 with RPMI-8226 is > 100 µM (inactive).
As for `NC(=S)N1N=C2c3ccccc3CCC[C@H]2[C@@H]1c1ccccc1`, the GI50 is 0.211 µM (active) with SNB-75; 1.01 µM (active) in the test with 786-0; 0.589 µM (active) in the test with HL-60; 1.52 µM (inactive) in the test on A549; 0.0977 µM (active) in the test on MDA-MB-435; 1.37 µM (inactive) in the test with SNB-19. Moreover, the GI50 is 1.59 µM (inactive) in the test with LOX IMVI; 10 µM (inactive) with T47D; 0.284 µM (active) in the test on K562; 0.427 µM (active) in the test on SK-OV-3; 0.661 µM (active) in the test on OVCAR-3; 0.552 µM (active) in the test on Hs-578T. Further, the GI50 in the test on HCT-15 is 1.29 µM; with SK-MEL-28, 10.5 µM (inactive); in the test with SK-MEL-5 it was 0.664 µM (active); in the test on A498, 3.1 µM (inactive); in the test with NCI-H226, 2.6 µM (inactive); in the test with RXF 393 it was 1.7 µM (inactive). For the same compound, the GI50 in the test on RPMI-8226 is 0.824 µM (active).
